Assay results reported in patent publication US8598193B2, “Polycyclic agents for the treatment of respiratory syncytial virus infections” (Biota Scientific Management Pty Ltd., priority 2003, dated 2013).
In brackets after ≈: the same amount, converted by molar mass. Read-outs that look alike come from different tables or passages of the source.

How the values were obtained:
RSV A2 [1] = assay: RSV antiviral cytopathic effect (CPE) assay, MTT readout; type: cell-based; details: human respiratory syncytial virus, HEp-2, 120 h
Experimental: Method Q: RSV Antiviral Assay Protocol
Compounds of the invention were tested for their antiviral activity against respiratory syncytial virus. Cytopathic effect (CPE) assays were performed essentially as described in the literature (see for example Watanabe et al, 1. Virological Methods, 1994, 48, 257). Serial dilutions of the test compounds were made in assay medium. HEp2 cells (1.0×10^4 cells/well) were infected with RSV at a low multiplicity of infection (e.g. RSV A2 at an moi of 0.01) and 100 μL added to cultures assessing antiviral activity and cells without virus added to those assessing compound cytotoxicity. Assays were incubated for approximately 5 days at 37° C. in a 5% CO2 atmosphere. The extent of CPE was determined via metabolism of the vital dye 3-(4,5-dimethylthiaxol-2-yl)-2,5-diphenyltetrazolium bromide (MTT). A 3 mg/ml stock of MTT was made in assay medium and 100 μL added to each well, taking the final MTT concentration to […]. After 2 hours incubation at 37° C., the media-MTT solution was removed and 200 μL of isopropanol was added to dissolve the vital dye crystals. Plates were shaken and the absorbance read at 540 nm. The compound concentrations that inhibited CPE by 50% (EC50) and developed cytotoxicity (CC50) were calculated using an Excel curve fitting program.

RSV A2 [2] = assay: RSV cotton rat model; type: in vivo; details: oral 100 mg/kg/day, lung RSV titres by plaque assay four days after inoculation
Experimental: Method S: RSV Cotton Rat Model
The cotton rat model was performed essentially as described in the literature (Wyde et al, Antiviral Res. 2003, 60, 221). Briefly, cotton rats weighing 50-100 g were lightly anesthetized with isoflurane and dosed orally with 100 mg/kg/day of compound or vehicle control. Viral infection followed 2 hours post-treatment in similarly anesthetized rats by intranasal instillation with approximately 1000 TCID50 of RSV A2 per animal. Four days after virus inoculation, each cotton rat was sacrificed and their lungs removed and RSV titres determined by plaque assay.

[3] = target: T1, RSV A2 F glycoprotein (membrane-anchored full-length F) in 293 cells (Human respiratory syncytial virus A, UniProt P03420); assay: RSV fusion assay (syncytium formation assay); type: cell-based
T1 construct: A membrane-anchored full-length F was generated essentially according to the method described therein; expressed in transfected cells; host or cells: 293 cells
Experimental: Method R: RSV Fusion Assay
Selected compounds of the invention were tested for their ability to inhibit the essential fusion processes of the respiratory syncytial virus.
Single-stranded synthetic DNA oligonucleotides encoding the portions of RSV A2 F glycoprotein incorporating optimal codons and without potential poly(A) addition or splice sites were generated synthetically (Mason et al, WO0242326). A membrane-anchored full-length F was generated essentially according to the method described therein and in Morton et al, Virology, 2003, 311, 275.
Fusion activity of the RSV-F constructs was measured in 293 cells essentially according to the method described in Morton et al, Virology, 2003, 311, 275. For example: cells in six well plates at approximately 80% confluency were transfected by adding plasmid DNA (2 μg/well) carrying the constructs of interest in CaPO4 solution for 4 hours. After glycerol shock and wash, the transfected cells were trypsinized and 1.5×10^4 cells/well added to 96-well plates containing half-log serial dilutions of the test compound. Syncytium formation was evaluated by visual inspection and quantified at 48 hours post-transfection by addition of 20 μL of CellTiter 96 One Solution (Promega) followed by incubation for 4 hours at 37° C. The colour reaction was then stopped by addition of 25 μL 10% SDS to each well and absorbance measured at 492 nm. The compound concentration that reduced absorbance relative to untreated control cultures by 50% (EC50) was calculated using an Excel curve fitting program.

RSV A2 [4] = assay: RSV Balb/c mouse model; type: in vivo; details: female Balb/c mice, compound orally 6 hours preinfection, lung RSV titres by plaque assay three days after virus inoculation
Experimental: Method T: RSV Balb/c Mouse Model
The mouse model was performed essentially as described by Clanci et al (Antimicrobial Agents and Chemotherapy. 2004, 48, 413). Briefly, eight week old female Balb/c mice were weighed, anesthetized intraperitoneally with Avertin™ and compound or vehicle administered orally 6 hours preinfection. Mice were inoculated intranasally with approximately 10000 TCID50 RSV A2 per animal. Three days after virus inoculation, each mouse was sacrificed and their lungs removed and RSV titres determined by plaque assay.

[5] = RSV A2 in HEp2 cells, CPE assay, MTT, approx. 5 days, read-out: Activity Range (RSV A2 antiviral EC50), compounds of Table 3
[6] = RSV A2 in HEp2 cells, CPE assay, MTT, approx. 5 days, read-out: Activity Range (RSV A2 antiviral EC50), compounds of Table 2
[7] = read-out: Activity Range (RSV A2 antiviral EC50), compounds of Table 2

T1 sequence (P03420 26-109): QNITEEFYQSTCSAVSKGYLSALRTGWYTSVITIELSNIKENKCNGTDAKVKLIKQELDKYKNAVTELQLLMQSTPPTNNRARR
T1 sequence (P03420 137-574): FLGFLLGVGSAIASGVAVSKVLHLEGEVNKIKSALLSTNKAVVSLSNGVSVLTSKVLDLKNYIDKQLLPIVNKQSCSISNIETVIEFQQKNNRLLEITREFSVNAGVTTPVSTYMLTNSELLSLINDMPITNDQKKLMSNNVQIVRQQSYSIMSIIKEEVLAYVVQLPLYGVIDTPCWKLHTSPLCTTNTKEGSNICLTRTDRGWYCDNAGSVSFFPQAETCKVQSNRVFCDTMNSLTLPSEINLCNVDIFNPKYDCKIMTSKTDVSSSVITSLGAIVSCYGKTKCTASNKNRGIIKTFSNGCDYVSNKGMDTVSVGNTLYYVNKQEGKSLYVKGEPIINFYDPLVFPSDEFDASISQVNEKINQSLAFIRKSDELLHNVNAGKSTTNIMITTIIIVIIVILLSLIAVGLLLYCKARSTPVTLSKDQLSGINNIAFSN

Row | Structure (SMILES) | EC50 (RSV A2 [1]; [5]) [µg/mL] | EC50 (RSV A2 [1]; [6]) [µg/mL] | further results
1 | O=C(c1ccc(F)cc1)N1CCN2C(=O)c3cc[n+]([O-])cc3C12c1ccc(Cl)cc1 (stereo not drawn) [Compound 352] | 0.1 to 0.25 (≈ 0.236 to 0.59 µM) | – | % Reduction of virus Control (RSV A2 [2]): 68%
2 | CCC(=O)N1CCN2C(=O)c3ccccc3C12c1ccc(Cl)cc1 (stereo not drawn) [Compound 16] | – | – | EC50 [3]: 2.2 to 4.4 µM
3 | O=C(c1ccc(F)cc1)N1CCN2C(=O)c3ccncc3C12c1ccc(Cl)cc1 (stereo not drawn) [Compound 336] | 0.1 to 0.25 (≈ 0.245 to 0.613 µM) | – | EC50 [3]: < 1.84 µM; % Reduction of virus Control (RSV A2 [4]): 80%; % Reduction of virus Control (RSV A2 [2]): 96%
4 | COc1ccc(CC(=O)N2CCN3C(=O)c4ccccc4C23c2ccc(C)cc2)cc1 (stereo not drawn) [Compound 66] | – | 0.1 to 0.25 (≈ 0.242 to 0.606 µM) | EC50 [3]: 1.82 to 3.64 µM
5 | O=C(c1ccc(F)cc1)N1CCN2C(=O)c3ccccc3C12c1ccc(Cl)cc1 (stereo not drawn) [Compound 12] | – | – | EC50 [3]: 3.69 to 5.53 µM; EC50 (RSV A2 [1]; [7]): 0.1 to 0.25 µg/mL (≈ 0.246 to 0.614 µM)
6 | O=C(c1ccc(F)nc1)N1CCN2C(=O)c3ccccc3C12c1ccc(Cl)cc1 (stereo not drawn) [Compound 306] | – | < 0.1 | % Reduction of virus Control (RSV A2 [2]): 72%
7 | O=C(CSCc1ccccc1)N1CCN2C(=O)c3ccccc3C12c1ccc(Cl)cc1 (stereo not drawn) [Compound 217] | – | 0.1 to 0.25 (≈ 0.223 to 0.557 µM) | –
8 | O=C(c1ccc(F)nc1)N1CCN2C(=O)c3ccccc3C12c1ccc(F)cc1 (stereo not drawn) [Compound 314] | – | 0.1 to 0.25 (≈ 0.256 to 0.639 µM) | –
9 | Cc1nc(-c2cnccn2)sc1C(=O)N1CCN2C(=O)c3ccncc3C21c1ccc(Cl)cc1 (stereo not drawn) [Compound 458] | 0.1 to 0.25 (≈ 0.205 to 0.511 µM) | – | –
10 | CCC(=O)N1CCN2C(=O)c3ccccc3C12c1ccc(Br)cc1 (stereo not drawn) [Compound 236] | – | 0.1 to 0.25 (≈ 0.26 to 0.649 µM) | –
11 | O=C(c1csc([N+](=O)[O-])c1)N1CCN2C(=O)c3ccncc3C12c1ccc(Cl)cc1 (stereo not drawn) [Compound 434] | 0.25 to 1 (≈ 0.567 to 2.27 µM) | – | –
12 | Cc1nnsc1C(=O)N1CCN2C(=O)c3ccccc3C21c1ccc(Cl)cc1 (stereo not drawn) [Compound 184] | – | – | EC50 (RSV A2 [1]; [7]): < 0.1 µg/mL
13 | CC(C)c1nnsc1C(=O)N1CCN2C(=O)c3ccncc3C21c1ccc(Cl)cc1 (stereo not drawn) [Compound 464] | 0.25 to 1 (≈ 0.568 to 2.27 µM) | – | –
14 | O=C(c1cccnc1)N1CCN2C(=O)c3ccncc3C12c1ccc(Cl)cc1 (stereo not drawn) [Compound 363] | < 0.1 | – | –
